Results taken from patent US10793514B2, “Glutamine transport inhibitors and methods for treating cancer” (Vanderbilt University, priority 2016, dated 2020).
“Also recorded” adds a separate entry of the source. Like-named read-outs stand apart in the source and are kept apart here.

Experiments:
human CRC cell lines = assay: Follow-up viability screening (MultiTox Glo, sulforhodamine B); assay type: cell-based; conditions: four human CRC cell lines; 48 hrs; MultiTox Glo
Experimental: (§1) Viability was evaluated using a commercially available chemiluminescent reagents (CellTiter-Glo, Promega Corp. G7572; MultiTox Glo, Promega Corp. G9270) in 96-well plate format according to the manufacturers protocol. […] Subsequently, CellTiter-Glo reagent was added and the plates were read using a plate reader (BioTek Synergy 4) with standard settings. Each set of conditions was replicated at least three times, technically and biologically. Error is reported as standard deviation (SD). The sulforhodamine B assay was run analogously to the above assays as previously described^19.

[1] = system: pERK in HCC1806 and HT29 cells; assay: AlphaScreen SureFire pERK assay; assay type: cell-based, human; conditions: 48 h
Experimental: Detection of activated ERK in cell lysates was enabled by the AlphaScreen SureFire ERK assay (Perkin Elmer) according to the manufacturers protocol. Cells were plated in 96-well plates for 24 hours prior to the assay.

HT29 cells = assay: Glutathione and reactive oxygen species in HT29 cells; assay type: cell-based, human; conditions: 48 h
Experimental: Glutathione levels were measured using a commercially available kit (Cayman Chemical 703002) according to the manufacturers protocol. Concurrently ROS was measured in cells using CM-H2DCFDA (Life Technologies C6827) coupled with flow cytometry in accordance with the manufacturers protocol. The assay was replicated replicated at least three times, technically and biologically. Significance was calculated using a t-test in Graphpad Prism. Error is reported as standard deviation (SD).

HCC1806 and HT29 cells = assay: Autophagic flux (CYTO-ID); assay type: cell-based, human; conditions: single agent
Experimental: Autophagic flux was measure using the CYTO-ID autophagy detection kit (Enzo Life Sciences ENZ-51031). HCC1806 and HT29 cells were seeded in 96 well plates the day before the experiment. […] Following treatment, cells were gently washed with assay buffer followed by addition of the dual color detection solution and incubation at 37° C. for 30 min. The plate was analyzed on a fluorescence microplane reader (BioTek Synergy 4).

HT29 and HCT-116 cells = assay: Cell viability with or without chloroquine; assay type: cell-based, human; conditions: 48 h
Experimental: as §1

[2] = system: human CRC organoids A-007 and A-008; assay: Human CRC organoid viability assay; assay type: cell-based; conditions: V-9302 25 μM or CB-839 35 μM, 96 h
Experimental: Human CRC-derived organoids were prepared as reported method with modification^41. Briefly, specimens from freshly resected tumors were minced and digested with 2 mg/ml type 2 collagenase (Worthington, N.J., USA). Samples were passed through 40 µm filters (Greiner Bio One, NC, USA) and epithelial cells trapped on the filters were embed in Matrigel (Corning, MA, USA) and cultured with advanced DMEM/F12 supplemented with N2 and B27 supplements (Thermo Fischer, MA, USA), 50 ng/ml rhEGF (R&D systems, MN, USA) and 1% antibiotic-antimycotic (Corning). For viability assay, organoids were dissociated by TrypLE express (Thermo Fischer) and suspended in Matrigel. […] After 4 days of culture, images of the organoids in Matrigel were captured and the number of viable cells were quantified with CellTiter Aqueous One Cell Proliferation Assay kit (Promega, WI, USA) and a Synergy 4 plate reader (BioTek, VT, USA). The assay was replicated at least three times, technically and biologically. Significance was calculated using a t-test in Graphpad Prism. Error is reported as standard deviation (SD).

ASCT2 [3] = target: ASCT2 (Rattus norvegicus (Rat), UniProt D3ZJ25); assay: Inhibition of ASCT2-mediated glutamine uptake in C6 (rat) cells; assay type: cell-based; conditions: for IC50: C6 (rat) cells, glutamine uptake, mean of at least 3 biological replicates; for preference for blocking glutamine transport in rat vs human cell line: C6 (rat) vs HEK293 (human)
Sequence of ASCT2 (Rattus norvegicus (Rat), UniProt D3ZJ25) (D3ZJ25 whole entry): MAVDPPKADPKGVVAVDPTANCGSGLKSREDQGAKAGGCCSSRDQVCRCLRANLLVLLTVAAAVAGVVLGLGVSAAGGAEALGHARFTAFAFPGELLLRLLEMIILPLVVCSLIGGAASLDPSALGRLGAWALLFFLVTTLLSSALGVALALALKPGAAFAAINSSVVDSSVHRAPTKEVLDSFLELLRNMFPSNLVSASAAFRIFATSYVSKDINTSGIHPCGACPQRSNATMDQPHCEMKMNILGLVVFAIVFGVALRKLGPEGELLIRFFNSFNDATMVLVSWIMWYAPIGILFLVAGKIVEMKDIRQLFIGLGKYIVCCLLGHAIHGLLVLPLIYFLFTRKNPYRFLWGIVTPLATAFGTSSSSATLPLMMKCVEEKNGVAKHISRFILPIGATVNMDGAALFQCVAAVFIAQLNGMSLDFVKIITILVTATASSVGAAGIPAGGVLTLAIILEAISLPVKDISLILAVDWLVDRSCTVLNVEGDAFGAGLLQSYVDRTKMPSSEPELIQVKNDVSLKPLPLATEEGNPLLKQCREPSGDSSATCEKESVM

ASCT2 [4] = target: ASCT2 (Homo sapiens (Human), UniProt Q15758); assay: Inhibition of ASCT2-mediated 3H-glutamine uptake in live HEK293 (human) cells; assay type: cell-based
Sequence of ASCT2 (Homo sapiens (Human), UniProt Q15758) (Q15758 whole entry): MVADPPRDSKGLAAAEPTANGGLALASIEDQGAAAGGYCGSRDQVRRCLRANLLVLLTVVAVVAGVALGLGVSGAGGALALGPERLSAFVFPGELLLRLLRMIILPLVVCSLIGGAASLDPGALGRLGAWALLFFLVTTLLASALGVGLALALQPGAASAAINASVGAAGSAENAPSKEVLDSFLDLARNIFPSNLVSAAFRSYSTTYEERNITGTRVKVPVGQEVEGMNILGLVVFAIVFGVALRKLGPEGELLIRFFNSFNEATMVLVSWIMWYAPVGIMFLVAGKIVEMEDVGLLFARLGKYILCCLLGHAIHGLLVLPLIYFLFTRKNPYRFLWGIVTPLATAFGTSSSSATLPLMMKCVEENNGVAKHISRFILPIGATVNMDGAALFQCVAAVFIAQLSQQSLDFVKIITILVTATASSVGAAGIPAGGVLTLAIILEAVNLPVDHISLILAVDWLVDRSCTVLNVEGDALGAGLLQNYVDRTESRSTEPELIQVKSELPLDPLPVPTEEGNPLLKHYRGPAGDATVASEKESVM
Experimental: Live-cell amino acid uptake assays using HEK293 cells were carried out in 96-well plates (CulturPlate-96, Perkin Elmer). 96-well plates were coated with poly-D-lysine prior to the assay. Cells were plated at a density of 35,000 cells per well 24 h prior to carrying out the assay. Each set of conditions was replicated at least three times, technically and biologically. […] For ASCT2-mediated ^3H-glutamine uptake assays, 5 mM of the system-L inhibitor 2-amino-2-norbornanecarboxylic acid (BCH) was added and the assay buffer was adjusted to pH 6.0. For selectivity studies, no BCH was added and the assay was conducted at pH 7.4. Following the incubation period, the ^3H-glutamine/inhibitor was removed and the cells were washed three times with assay buffer. The cells were then lysed by the addition of 50 μL of 1 M NaOH. For reading, 150 μL of scintillation fluid (Microscint 40, Perkin Elmer) was added and the plates were counted on a scintillation counter (Topcount, Perkin Elmer). Fifty percent inhibitory concentrations (IC50) were calculated using GraphPad Prism version 6 for Mac OS X, GraphPad Software, San Diego Calif. […] Error is reported as standard deviation (SD).

ASCT2 [5] = conditions: cited from earlier work
HCC1806 cells = assay: Cell viability in HCC1806 cells; assay type: cell-based; conditions: Homo sapiens, exposure 48 hrs
[6] = HEK293 (human) cells, glutamine uptake, mean of at least 3 biological replicates, read-out: IC50 (human)

O=C(Cc1cccc(OC(F)(F)F)c1)Nc1ccc(CCCCc2nnc(NC(=O)Cc3ccccn3)s2)nn1 [CB-839, reference compound]
EC50, cellular viability (human CRC cell lines): did not exhibit appreciable activity | pERK (independent biochemical assay) [1]: not observed | GSSG levels and ROS (HT29 cells): not observed | autophagic flux (HCC1806 and HT29 cells): did not lead to elevated autophagic flux | cell viability, single agent (HT29 and HCT-116 cells): did not decrease cell viability | organoid viability [2]: not significantly affected

COc1cccc(Oc2ccccc2CN(CC[C@@H](N)C(=O)O)Cc2ccccc2Oc2ccccc2OC)c1 [Compound 5]
IC50 (ASCT2 [3]): 1.3 µM | preference for blocking glutamine transport in rat vs human cell line (ASCT2 [3]): exhibited this preference | IC50 (ASCT2 [4]; [6]): 57.2 µM

COc1ccc(Oc2ccccc2CN(CC[C@@H](N)C(=O)O)Cc2ccccc2Oc2ccc(OC)cc2)cc1 [Compound 6]
IC50 (ASCT2 [3]): 8.7 µM | preference for blocking glutamine transport in rat vs human cell line (ASCT2 [3]): roughly equal potencies in both cells lines | IC50 (ASCT2 [4]; [6]): 11.9 µM

N[C@H](CCN(Cc1ccccc1Oc1cccc(Cl)c1)Cc1ccccc1Oc1cccc(Cl)c1)C(=O)O [Compound 7]
IC50 (ASCT2 [4]; [6]): 26 µM

N[C@H](CCN(Cc1ccccc1Oc1ccccc1F)Cc1ccccc1Oc1ccccc1F)C(=O)O [Compound 8]
IC50 (ASCT2 [3]): 1.8 µM | preference for blocking glutamine transport in rat vs human cell line (ASCT2 [3]): some preference for blocking glutamine transport in the rat cell line | IC50 (ASCT2 [4]; [6]): 33.8 µM

N[C@H](CCN(Cc1ccccc1Oc1cccc(F)c1)Cc1ccccc1Oc1cccc(F)c1)C(=O)O [Compound 9]
IC50 (ASCT2 [3]): 36.3 µM

Cc1ccc(Oc2ccccc2CN(CC[C@@H](N)C(=O)O)Cc2ccccc2Oc2ccc(F)cc2)cc1 [Compound 10]
IC50 (ASCT2 [3]): 10.5 µM | preference for blocking glutamine transport in rat vs human cell line (ASCT2 [3]): some preference for blocking glutamine transport in the rat cell line | IC50 (ASCT2 [4]; [6]): 142 µM

N[C@H](CCN(Cc1ccccc1Oc1ccccn1)Cc1ccccc1Oc1ccccn1)C(=O)O [Compound 11]
IC50 (ASCT2 [3]): 68.2 µM | preference for blocking glutamine transport in rat vs human cell line (ASCT2 [3]): roughly equal potencies in both cells lines | IC50 (ASCT2 [4]; [6]): 59.6 µM

COc1cccc(COc2ccccc2CN(CC[C@@H](N)C(=O)O)Cc2ccccc2OCc2cccc(OC)c2)c1 [Compound 12]
IC50 (ASCT2 [3]): 5.1 µM | IC50 (ASCT2 [4]; [6]): 7.2 µM

N[C@H](CCN(Cc1ccccc1OCc1ccccc1Cl)Cc1ccccc1OCc1ccccc1Cl)C(=O)O [Compound 13]
IC50 (ASCT2 [3]): 18.4 µM | IC50 (ASCT2 [4]; [6]): 40.1 µM

N[C@H](CCN(Cc1ccccc1OCc1cccc(O)c1)Cc1ccccc1OCc1cccc(Cl)c1)C(=O)O [Compound 14]
IC50 (ASCT2 [3]): 12.7 µM | IC50 (ASCT2 [4]; [6]): 50.8 µM

N[C@H](CCN(Cc1ccccc1OCc1ccc(Cl)cc1)Cc1ccccc1OCc1ccc(Cl)cc1)C(=O)O [Compound 15]
IC50 (ASCT2 [3]): 20.1 µM | IC50 (ASCT2 [4]; [6]): 33.7 µM

Cc1ccccc1COc1ccccc1CN(CC[C@@H](N)C(=O)O)Cc1ccccc1OCc1ccccc1C [Compound 16]
IC50 (ASCT2 [3]): 41.7 µM | IC50 (ASCT2 [4]; [6]): 25.6 µM

Cc1cccc(COc2ccccc2CN(CC[C@@H](N)C(=O)O)Cc2ccccc2OCc2cccc(C)c2)c1 [Compound 17]
IC50 (ASCT2 [3]): 9 µM

Cc1ccc(COc2ccccc2CN(CC[C@@H](N)C(=O)O)Cc2ccccc2OCc2ccc(C)cc2)cc1 [Compound 18]
IC50 (ASCT2 [3]): 86.4 µM | preference for blocking glutamine transport in rat vs human cell line (ASCT2 [3]): significant preference for inhibiting glutamine uptake in the human form of ASCT2 | IC50 (ASCT2 [4]; [6]): 17.5 µM

N[C@H](CCN(Cc1ccccc1OCc1ccccc1F)Cc1ccccc1OCc1ccccc1F)C(=O)O [Compound 19]
IC50 (ASCT2 [3]): 3.3 µM

N[C@H](CCN(Cc1ccccc1OCc1ccc(F)cc1)Cc1ccccc1OCc1ccc(F)cc1)C(=O)O [Compound 20]
IC50 (ASCT2 [3]): 11.2 µM

N[C@H](CCN(Cc1ccccc1OCc1ccccn1)Cc1ccccc1OCc1ccccn1)C(=O)O [Compound 21]
IC50 (ASCT2 [3]): 8.4 µM | IC50 (ASCT2 [4]; [6]): 48.3 µM

N[C@H](CCN(Cc1ccccc1OCc1cccnc1)Cc1ccccc1OCc1cccnc1)C(=O)O [Compound 22]
IC50 (ASCT2 [3]): 17.3 µM | IC50 (ASCT2 [4]; [6]): 89.1 µM

N[C@@H](CCC(=O)Nc1ccc([N+](=O)[O-])cc1)C(=O)O [GPNA, L-γ-glutamyl-p-nitroanilide]
IC50 (ASCT2 [4]; live HEK-293 cells, read-out: IC50, inhibition of ASCT2-mediated glutamine uptake in human cells): 1000 µM | potency as ASCT2 inhibitor (previously reported) (ASCT2 [5]): poor potency and selectivity in human cells; also recorded: modest potency in the low millimolar range

NC(=O)CC[C@H](Nc1ccccc1CN1CCOCC1)C(=O)O [N-(2-(morpholinomethyl)phenyl)-L-glutamine]
activity against ASCT2 compared to GPNA (previously described) (ASCT2 [5]): three-fold improved activity

N[C@@H](COC(=O)c1ccc(-c2ccccc2)cc1)C(=O)O [O-(4-phenylbenzoyl)-L-serine]
Ki (ASCT2 [5]; Albers et al., read-out: apparent affinity): 30 µM

Cc1cccc(COc2ccccc2CN(Cc2ccccc2OCc2cccc(C)c2)C2CCN[C@H](C(=O)O)C2)c1 (stereo partly drawn) [WJB-A-110, (2S)-4-(Bis(2-((3-methylbenzyl)oxy)benzyl)amino)piperidine-2-carboxylic Acid]
IC50 (HCC1806 cells): 32 µM

Cc1cccc(COc2ccccc2CN(Cc2ccccc2OCc2cccc(C)c2)C2CN[C@H](C(=O)O)C2)c1 (stereo partly drawn) [WJB-A-119, (2S)-4-(Bis(2-((3-methylbenzyl)oxy)benzyl)amino)pyrrolidine-2-carboxylic Acid]
IC50 (HCC1806 cells): 23 µM
